# Measured values from PubChem BioAssay (NCI).
#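 Cultured in 96-well plates, cells were exposed to test compound for 48 hours across five concentrations. The concentration for full growth arrest is given as TGI.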
# Assays:
# Assay in all cases: NCI tumour cell line growth inhibition, 48 h
# [1] = test system: HT29 colon
# [2] = test system: SN12K1 renal
# [3] = test system: SK-MEL-2 melanoma
# [4] = test system: NCI/ADR-RES ovarian
# [5] = test system: HOP-62 NSCLC
# [6] = test system: K-562 leukemia
# [7] = test system: DLD-1 colon
# [8] = test system: HOP-18 NSCLC
# [9] = test system: P388 leukemia
# [10] = test system: SNB-78 CNS
# [11] = test system: SK-MEL-5 melanoma
# [12] = test system: RPMI-8226 leukemia
# [13] = test system: HOP-92 NSCLC
# [14] = test system: NCI-H23 lung
# [15] = test system: XF 498 CNS
# [16] = test system: P388/ADR leukemia
# [17] = test system: M14 melanoma
# [18] = test system: TK-10 renal
# [19] = test system: SR leukemia
# [20] = test system: ACHN renal
Structure (SMILES),TGI [1],TGI [2],TGI [3],TGI [4],TGI [5],TGI [6],TGI [7],TGI [8],TGI [9],TGI [10],TGI [11],TGI [12],TGI [13],TGI [14],TGI [15],TGI [16],TGI [17],TGI [18],TGI [19],TGI [20]
COc1ccc(/C=C2\CCNC2=O)cc1,> 100 µM,> 100 µM,> 100 µM,> 100 µM,> 100 µM,> 100 µM,> 100 µM,> 100 µM,> 100 µM,> 100 µM,> 100 µM,> 100 µM,> 100 µM,> 100 µM,> 100 µM,> 100 µM,,,,
NC(CCCCCP(=O)(c1ccccc1)C1C=CC=CC1)C(=O)O (centres undefined),> 100 µM,,> 100 µM,> 100 µM,,> 100 µM,,,,,> 100 µM,> 100 µM,> 100 µM,> 100 µM,,,> 100 µM,> 100 µM,> 100 µM,> 100 µM
O=c1cc[nH]c(=O)[nH]1,> 1000 µM,994 µM,> 1000 µM,> 562 µM,> 872 µM,> 1000 µM,> 1000 µM,> 1000 µM,447 µM,> 1000 µM,342 µM,> 1000 µM,> 1000 µM,> 315 µM,7.72 µM,807 µM,,,,
C=CCc1c(O)c2c(c3oc(=O)cc(C)c13)CC(C)O2 (centres undefined),> 100 µM,,> 100 µM,,> 100 µM,> 100 µM,> 100 µM,> 100 µM,,> 100 µM,> 100 µM,> 100 µM,,> 100 µM,,,> 100 µM,> 100 µM,> 100 µM,> 100 µM
CC(C)Cc1ccc(C(C)C(=O)N2CCN(/C=C/c3ccccc3)CC2)cc1 (centres undefined),28 µM,27.1 µM,27 µM,28.2 µM,29.7 µM,29.3 µM,27.3 µM,35.9 µM,29.8 µM,46.7 µM,26 µM,25.6 µM,26.1 µM,27.1 µM,27.3 µM,42.1 µM,,,,
O=C1c2cccc3c2C(=O)c2c(cccc21)OCCOCCOCCOCCO3,> 100 µM,,> 100 µM,,> 100 µM,> 100 µM,> 100 µM,> 100 µM,,> 100 µM,> 100 µM,> 100 µM,,> 100 µM,,,> 100 µM,> 100 µM,58.9 µM,> 100 µM
CCOc1ncn(-c2ccc(NC(=S)Nc3ncccn3)cc2)n1,25.7 µM,,,,> 100 µM,> 100 µM,,,,,44.9 µM,> 100 µM,87 µM,> 100 µM,,,91.3 µM,> 100 µM,59.5 µM,
O=c1sc2ccccc2n1CC1CS1 (centres undefined),> 100 µM,,> 100 µM,,> 100 µM,> 100 µM,,,,,,> 100 µM,> 100 µM,,> 100 µM,,> 100 µM,> 100 µM,> 100 µM,> 100 µM
